We go through one molecule from publication PMC6894422 (Journal of the American Chemical Society, 2019).

In series [1] the test system is kinome (222 kinases quantified) in NOMO-1 human AML cells. The experiment in a line: MIB-MS kinome profiling. The series is classed as cell-based. The note with it: NOMO-1 cells, 100 nM, one hour.
Series [2] can be described thus: pharmacokinetic study in mice. The series is classed as in vivo.
Series [3] relates to OCI-AML5 AML cells. In words: colony formation in soft agar. The format is cell-based.
Series [4] concerns COLO-699 NSCLC cells. The experiment in a line: colony formation in soft agar. The format is cell-based. Particulars: 14 days.
In series [5] the test system is NOMO-1 AML cells. In words: colony formation in soft agar. The note with it: NOMO-1, 300 nM. The series is classed as cell-based, human.
Series [6] relates to A549 NSCLC cells. The experiment in a line: colony formation in soft agar. The note with it: A549, 300 nM, 14 days. The format is cell-based.
Series [7] has as its system Kasumi-1 AML cells. The experiment in a line: cell death by PoPro-1-iodide/propidium iodide flow cytometry. The format is cell-based. The note with it: Kasumi-1, 300 nM, 72 hours.
Series [8] relates to NOMO-1 AML cells. Described as above. Particulars: NOMO-1, 300 nM, 72 hours.
Series [9] has as its system AXL phosphorylation in A549 NSCLC cells. In words: pAXL assay.
Series [10] concerns MERTK phosphorylation in 697 ALL cells. The experiment in a line: pMERTK assay.

As to `CC(C)C(=O)Nc1ccnc(C#Cc2ccc(Nc3ncc(-c4ccccn4)c(NC4CCC(O)CC4)n3)cc2)c1` (centres unmarked) [Compound 10], the “number of kinases with lower enrichment on the beads compared to DMSO control” value in [1] (222 kinases quantified) is recorded as 27 kinases. Besides, the “number of kinases significantly decreased” value in series [1] (p < 0.05 and log2 ratio 10/control ≥ 2) was 8 kinases. Further, in series [2] (p.o.), the oral bioavailability result was “weak oral bioavailability”. Further, the Cmax in [2] (plasma, via i.p. route) was 435 ng/mL. In series [2] (plasma, via i.p. route), this molecule gave a T1/2 of 4.97 h. For the same molecule, the “reduction in colony number” value is given as 70% in [3] (OCI-AML5, 50 nM); 70% in [4] (COLO-699, 50 nM); 60–75% in series [5]; 60–75% in [6]. For the same molecule, the colony formation entry in series [3] (OCI-AML5, 300 nM) is “complete abrogation of colony formation”; in series [4] (COLO-699, 300 nM) it was “complete abrogation of colony formation”. The “tumor cell death (% of cells)” value in series [7] is 67%; in series [8], 41%. Moreover, the “inhibition of pAXL at higher concentrations” value in series [9] (higher concentrations of 10) is “Near complete inhibition”. For the same molecule, the IC50 was determined as 32 nM in [9] (read-out: IC50 (AXL phosphorylation), A549 NSCLC cells, 1 hour, 95% confidence interval = 18–57 nM) and 28 nM in [10] (read-out: IC50 (MERTK phosphorylation), 697 ALL cells, 1 hour, 95% confidence interval = 16–52 nM). In addition, the “inhibition of pMERTK at higher concentrations” value in [10] (higher concentrations of 10) is given as “Near complete inhibition”.
